Experimental data as given in patent US9890185B2, “Urea derivatives useful as kinase inhibitors” (Respivert Limited, priority 2013, dated 2018).

How the values were obtained:
[1] = molecular target: c-Src (Homo sapiens (Human), UniProt P12931); experiment: c-Src enzyme inhibition (FRET, Z-LYTE); assay type: biochemical
Summary of the method: (§1)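 Z-LYTE FRET read-out uses protease cleavage of unphosphorylated peptide, and the donor/acceptor ratio reflects phosphorylation. Kinase stocks (c-Src 3000, Syk 2000 ng/mL) were preincubated 2 hr RT with compound stocks of 0.004–4 μg/mL. Peptide and ATP solutions (c-Src 800 μM, Syk 60 μM) were then added for 1 hr. IC50 was taken from concentration-response.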

[2] = test system: HT29 cells; experiment: IL-1β-induced IL-8 release in HT29 cells (assay d); assay type: cell-based; details: Homo sapiens, HT-29; IL-1β-stimulated HT29 cells; read-out: IC50 Values for Inhibition of Cytokine Release, HT29 cells IL-8
Experimental: HT29 cells, a human colon adenocarcinoma cell line, are plated in a 96 well plate (24 hrs) and pre-treated with compounds at the desired concentration for 2 hours before addition of 5 ng/mL of IL-1β (Abcam) for 24 hours. Supernatants are harvested for IL-8 quantification by Sandwich ELISA (Duo-set, R&D System). The IC50 is determined from the dose response curve.

[3] = test system: PBMCs; experiment: IL-2 release in CD3/CD28 stimulated PBMC cells (assay c); assay type: cell-based; details: Homo sapiens, read-out: IC50 Values for Inhibition of Cytokine Release, PBMCs IL-2
Summary of the method: (§2)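 Healthy-donor PBMCs, isolated by density gradient, were plated in wells pre-coated with anti-CD3 (0.3 μg/mL) and anti-CD28 (3 μg/mL) antibodies, then exposed to compound for 3 days under normal culture conditions. IL-2 and IFN gamma in supernatants were measured by sandwich ELISA; IC50 taken from the dose-response curve.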

[4] = molecular target: Syk (Homo sapiens (Human), UniProt P43405); experiment: Syk enzyme inhibition (FRET, Z-LYTE); assay type: biochemical
Summary of the method: as §1

[5] = test system: PBMCs; experiment: IFN gamma release in CD3/CD28 stimulated PBMC cells (assay c); assay type: cell-based; details: Homo sapiens, read-out: IC50 Values for Inhibition of Cytokine Release, PBMCs IFNγ
Summary of the method: as §2

c-Src, sequence (P12931 whole entry, looked up): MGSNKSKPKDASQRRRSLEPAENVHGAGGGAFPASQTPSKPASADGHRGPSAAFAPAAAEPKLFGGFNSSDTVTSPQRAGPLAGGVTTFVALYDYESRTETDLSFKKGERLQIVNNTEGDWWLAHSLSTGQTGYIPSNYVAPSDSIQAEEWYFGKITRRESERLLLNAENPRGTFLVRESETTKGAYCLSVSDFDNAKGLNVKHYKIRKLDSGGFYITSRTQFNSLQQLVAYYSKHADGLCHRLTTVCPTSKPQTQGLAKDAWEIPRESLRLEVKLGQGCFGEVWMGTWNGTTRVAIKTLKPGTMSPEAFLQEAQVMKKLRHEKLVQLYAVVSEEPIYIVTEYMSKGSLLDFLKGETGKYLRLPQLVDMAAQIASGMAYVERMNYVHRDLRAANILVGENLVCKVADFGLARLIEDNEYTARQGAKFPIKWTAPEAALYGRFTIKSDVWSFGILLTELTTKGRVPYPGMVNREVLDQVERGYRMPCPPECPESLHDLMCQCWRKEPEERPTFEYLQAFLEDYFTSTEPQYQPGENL

Row | SMILES | IC50 [1] [nM] | IC50 [2] [nM] | IC50 [3] [nM] | IC50 [4] [nM] | IC50 [5] [nM]
1 | COCCOCCOCCOc1cc(Nc2cc(Oc3ccc(NC(=O)Nc4cc(C(C)(C)C)cc(CS(C)(=O)=O)c4OC)c4ccccc34)ccn2)cc(OC)c1 [15(a), 1-(5-(tert-butyl)-2-methoxy-3-((methylsulfonyl)methyl)phenyl)-3-(4-((2-((3-methoxy-5-(2-(2-(2-methoxyethoxy)ethoxy)ethoxy)phenyl)amino)pyridin-4-yl)oxy)naphthalen-1-yl)urea] | 28 | 4.2 | 43.2 | 134 | 27.2
2 | COc1c(CC(N)=O)cc(C(C)(C)C)cc1NC(=O)Nc1ccc(Oc2ccnc(Nc3cc(C)cc(C)c3)c2)c2ccccc12 [38(f), 2-(5-(tert-Butyl)-3-(3-(4-((2-((3,5-dimethylphenyl)amino)pyridin-4-yl)oxy)naphthalen-1-yl)ureido)-2-methoxyphenyl)acetamide] | 69 | 4.8 | 75.8 | 837 | 16.5
3 | COCCOCCOCCOc1cc(Nc2cc(Oc3ccc(NC(=O)Nc4cc(C(C)(C)C)cc(P(C)(C)=O)c4OC)c4ccccc34)ccn2)cc(OC)c1 [Example 2, 1-(5-(tert-Butyl)-3-(dimethylphosphoryl)-2-methoxyphenyl)-3-(4-((2-((3-methoxy-5-(2-(2-(2-methoxyethoxy)ethoxy)ethoxy)phenyl)amino)pyridin-4-yl)oxy)naphthalen-1-yl)urea] | 11 | 1.7 | 76.1 | 53 | 2.9
4 | C#Cc1cc(Nc2cc(Oc3ccc(NC(=O)Nc4cc(C(C)(C)C)cc(P(C)(C)=O)c4OC)c4ccccc34)ccn2)cc(C(=O)NCCOCCOCCOC)c1 [Example 3, 3-((4-((4-(3-(5-(tert-Butyl)-3-(dimethylphosphoryl)-2-methoxyphenyl)ureido)naphthalen-1-yl)oxy)pyridin-2-yl)amino)-5-ethynyl-N-(2-(2-(2-methoxyethoxy)ethoxy)ethyl)benzamide] | 38 | 14.5 | 181 | > 1220 | 18.4
5 | COCCOCCOCCOc1cc(Nc2cc(Oc3ccc(NC(=O)Nc4cc(C(C)(C)C)cc(P(C)(C)=O)c4)c4ccccc34)ccn2)cc(OC)c1 [Example 10, 1-(3-(tert-Butyl)-5-(dimethylphosphoryl)phenyl)-3-(4-((2-((3-methoxy-5-(2-(2-(2-methoxy-ethoxy)ethoxy)ethoxy)phenyl)amino)pyridin-4-yl)oxy)naphthalen-1-yl)urea] | 16 | 8.2 | 88.6 | > 887 | 31.3
6 | COc1c(NC(=O)Nc2ccc(Oc3ccnc(Nc4ccccc4)c3)c3ccccc23)cc(C(C)(C)C)cc1P(C)(C)=O [Example 11, 1-(5-(tert-Butyl)-3-(dimethylphosphoryl)-2-methoxyphenyl)-3-(4-((2-(phenylamino)pyridin-4-yl)oxy)naphthalen-1-yl)urea] | 32 | 15.8 | 80.6 | 186 | 10.5
7 | COCCOCCOCCOc1cc(Nc2cc(Oc3ccc(NC(=O)Nc4cc(C(C)(C)C)cc(C(=O)NCCN5CCOCC5)c4OC)c4ccccc34)ccn2)cc(OC)c1 [Example 16, 5-(tert-Butyl)-2-methoxy-3-(3-(4-((2-((3-methoxy-5-(2-(2-(2-methoxyethoxy)ethoxy)ethoxy)-phenyl)amino)pyridin-4-yl)oxy)naphthalen-1-yl)ureido)-N-(2-morpholinoethyl)benzamide] | 40 | 1.5 | 7.7 | 93 | 4.3
8 | COCCOCCOCCOc1cc(Nc2cc(Oc3ccc(NC(=O)Nc4cc(C(C)(C)C)cc([S+](C)[O-])c4OC)c4ccccc34)ccn2)cc(OC)c1 (stereo not shown) [Example 17, 1-(5-(tert-Butyl)-2-methoxy-3-(methylsulfinyl)phenyl)-3-(4-((2-((3-methoxy-5-(2-(2-(2-methoxyethoxy)ethoxy)ethoxy)phenyl)amino)pyridin-4-yl)oxy)naphthalen-1-yl)urea] | 30 | 2 | 30.5 | 134 | 4.9
9 | COc1c(CS(C)(=O)=O)cc(C(C)(C)C)cc1NC(=O)Nc1ccc(Oc2ccnc(Nc3ccccc3)c2)c2ccccc12 [Example 19, 1-(5-(tert-Butyl)-2-methoxy-3-((methylsulfonyl)methyl)phenyl)-3-(4-((2-(phenylamino)pyridin-4-yl)oxy)naphthalen-1-yl)urea] | 145 | 8.6 | 257 | 189 | 26.8
10 | COc1cc(Nc2nccc(Oc3ccc(NC(=O)Nc4cc(C(C)(C)C)cc(OCP(C)(C)=O)c4OC)c4ccccc34)n2)cc(OC)c1 [Example 20, 1-(5-(tert-Butyl)-3-((dimethylphosphoryl)methoxy)-2-methoxyphenyl)-3-(4-((2-((3,5-dimethoxyphenyl)amino)pyrimidin-4-yl)oxy)naphthalen-1-yl)urea] | 33 | 3.3 | 10.5 | 188 | 7.9
11 | COc1cc(Nc2cc(Oc3ccc(NC(=O)Nc4cc(C(C)(C)C)cc([S+](C)[O-])c4OC)c4ccccc34)ccn2)cc(OC)c1 (stereo not shown) [Example 40, 1-(5-(tert-Butyl)-2-methoxy-3-(methylsulfinyl)phenyl)-3-(4-((2-((3,5-dimethoxyphenyl)amino)pyridin-4-yl)oxy)naphthalen-1-yl)urea] | 78 | 3 | 179 | 201 | 5.2
12 | COc1cccc(Nc2cc(Oc3ccc(NC(=O)Nc4cc(C(C)(C)C)cc([S+](C)[O-])c4OC)c4ccccc34)ccn2)c1 (stereo not shown) [Example 41, 1-(5-(tert-Butyl)-2-methoxy-3-(methylsulfinyl)phenyl)-3-(4-((2-((3-methoxyphenyl)amino)pyridin-4-yl)oxy)naphthalen-1-yl)urea] | 72 | 2.2 | 184 | 247 | 6.9
13 | COc1cccc(Nc2cc(Oc3ccc(NC(=O)Nc4cc(C(C)(C)C)cc(CNC(C)=O)c4OC)c4ccccc34)ccn2)c1 [Example 43, N-(5-(tert-Butyl)-2-methoxy-3-(3-(4-((2-((3-methoxyphenyl)amino)pyridin-4-yl)oxy)naphthalen-1-yl)ureido)benzyl)acetamide] | 54 | 3.7 | 30.4 | 132 | 2.8
14 | COc1cc(Nc2cc(Oc3ccc(NC(=O)Nc4cc(C(C)(C)C)cc(CNC(C)=O)c4OC)c4ccccc34)ccn2)cc(OC)c1 [Example 44, N-(5-(tert-Butyl)-3-(3-(4-((2-((3,5-dimethoxyphenyl)amino)pyridin-4-yl)oxy)naphthalen-1-yl)ureido)-2-methoxybenzyl)acetamide] | 67 | 5.2 | 28.3 | 95 | 2.3
